From paper PMC9321952 (Molecular Ecology, 2022)
pEC50: −log10 of the molar value.

Key:
Test in all cases: Fluo-4 calcium fluorescence assay, HEK293 cells
Details in all cases: agonist; co-expressed with ItypOrco; room temperature
HabiOR4^HsCO = type: cell-based, Hylobius abietis
DponOR8^HsCO = type: cell-based, Dendroctonus ponderosae
ItypOR6 = type: cell-based, Ips typographus
HabiOR3 = type: cell-based, Hylobius abietis

SMILES | pEC50 (HabiOR4^HsCO) | pEC50 (DponOR8^HsCO) | pEC50 (ItypOR6) | pEC50 (HabiOR3)
CCCCCCO [1-hexanol] | 5.55 | – | – | –
OCCc1ccccc1 [2-phenylethanol] | – | 5.29 | 5.46 | 5.07
CCC/C=C/CO [E2-hexenol] | 5.41 | – | – | –

Second part, the molecule after the results:

pEC50 (HabiOR4^HsCO) | pEC50 (DponOR8^HsCO) | pEC50 (ItypOR6) | pEC50 (HabiOR3) | SMILES
5.13 | – | – | – | CCC/C=C\CO [Z2-hexenol]
5.10 | – | – | – | CC/C=C\CCO [Z3-hexenol]
